Results taken from the supplement of paper PMC10307832.

Assays:
Test in all cases: relative viability (nuclei count vs DMSO), 5 days (fraction); higher = more cells survive
AZ628 + Lapatinib = compound: CC1=C(C=C(C=C1)NC(=O)C2=CC(=CC=C2)C(C)(C)C#N)NC3=CC4=C(C=C3)N=CN(C4=O)C [AZ628] + CS(=O)(=O)CCNCc1ccc(-c2ccc3ncnc(Nc4ccc(OCc5cccc(F)c5)c(Cl)c4)c3c2)o1 [Lapatinib] (partner 2 µM)
Procedure, shortened: (§1)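 Relative viability was taken as the ratio of nuclei in treated wells to nuclei in vehicle wells. Lung cancer cell lines in 1536-well plates received compounds by pin tool one day after seeding, either one drug alone or a fixed anchor-drug dose plus five library-drug doses (not always all listed) in √10 steps. Nuclei were counted on 4× images after 5 days of treatment, and values are medians of duplicate plates.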

Darinaparsin + Dasatinib = compound: C[As](C)SC[C@H](NC(=O)CC[C@H](N)C(=O)O)C(=O)NCC(=O)O [Darinaparsin] + Cc1nc(Nc2ncc(C(=O)Nc3c(C)cccc3Cl)s2)cc(N2CCN(CCO)CC2)n1 [Dasatinib] (partner 0.075 µM)
Procedure, shortened: as §1

AZ628 + Crizotinib = compound: CC1=C(C=C(C=C1)NC(=O)C2=CC(=CC=C2)C(C)(C)C#N)NC3=CC4=C(C=C3)N=CN(C4=O)C [AZ628] + C[C@@H](Oc1cc(-c2cnn(C3CCNCC3)c2)cnc1N)c1c(Cl)ccc(F)c1Cl [Crizotinib] (partner 1 µM)
Procedure, shortened: as §1

| Cell Line | relative viability (AZ628 + Lapatinib; first compound 0.08 µM) | relative viability (AZ628 + Lapatinib; first compound 0.253 µM) | relative viability (AZ628 + Lapatinib; first compound 0.8 µM) | relative viability (AZ628 + Lapatinib; first compound 2.53 µM) | relative viability (AZ628 + Lapatinib; first compound 8 µM) | relative viability (Darinaparsin + Dasatinib; first compound 0.08 µM) | relative viability (Darinaparsin + Dasatinib; first compound 0.8 µM) | relative viability (Darinaparsin + Dasatinib; first compound 2.53 µM) | relative viability (Darinaparsin + Dasatinib; first compound 8 µM) | relative viability (AZ628 + Crizotinib; first compound 0.08 µM) | relative viability (AZ628 + Crizotinib; first compound 0.253 µM) | relative viability (AZ628 + Crizotinib; first compound 0.8 µM) | relative viability (AZ628 + Crizotinib; first compound 2.53 µM) | relative viability (AZ628 + Crizotinib; first compound 8 µM) |
| --- | --- | --- | --- | --- | --- | --- | --- | --- | --- | --- | --- | --- | --- | --- |
| NCI-H3122 | 0.975 | 0.733 | 0.733 | 0.684 | 0.435 | 0.998 | 0.73 | 0.71 | 0.968 | 0.349 | 0.252 | 0.29 | 0.238 | 0.234 |
| NCI-H596 | 1.03 | 1.08 | 1.11 | 1.08 | 1.27 | 0.624 | 0.625 | 0.632 | 0.566 | 0.903 | 1.18 | 1.08 | 1.04 | 1.16 |
| NCI-H661 | 0.401 | 0.502 | 0.435 | 0.498 | 0.464 | 0.981 | 0.772 | 0.89 | 0.948 | 0.975 |  |  | 1.1 | 1.01 |
| NCI-H727 | 0.484 | 0.472 | 0.415 | 0.326 | 0.296 | 0.401 | 0.356 | 0.414 | 0.416 | 0.706 | 0.523 | 0.452 | 0.368 | 0.258 |
| NCI-H1666 | 0.759 | 0.58 | 0.521 | 0.477 | 0.539 | 0.817 | 0.814 | 0.799 | 0.832 | 1.09 | 0.901 | 0.819 | 0.761 | 0.632 |
| COR-L23 | 1.11 | 1.05 | 1.04 | 0.968 | 0.683 | 0.694 | 0.493 | 0.39 | 0.497 | 0.619 | 0.736 | 0.666 | 0.59 | 0.365 |
| NCI-H460 | 1.08 | 0.868 | 0.853 | 0.87 | 0.559 | 0.632 | 0.478 | 0.473 | 0.721 | 1.03 | 0.92 | 0.872 | 0.7 | 0.38 |
| SK-MES-1 | 0.475 | 0.501 | 0.479 | 0.473 | 0.437 | 0.284 | 0.258 | 0.344 | 0.345 | 0.953 | 0.93 | 1.08 | 1.15 | 0.882 |
| LC-2-ad | 0.949 | 0.867 | 0.446 | 0.72 | 0.474 | 0.683 | 0.628 | 0.454 | 0.466 | 0.503 | 0.457 | 0.448 | 0.44 | 0.505 |
| BEN | 0.775 | 0.554 | 0.661 | 0.815 | 0.545 | 0.305 | 0.308 | 0.31 | 0.371 | 0.98 | 0.881 | 0.698 | 0.966 | 0.825 |
| NCI-H1651 | 0.985 | 0.86 | 0.865 | 0.753 | 1.11 | 0.51 | 0.476 | 0.365 | 0.416 | 0.864 | 0.87 | 0.863 | 0.902 | 0.925 |
| EKVX | 0.232 | 0.206 | 0.216 | 0.219 | 0.257 | 0.504 | 0.488 | 0.53 | 0.512 | 1.16 | 0.913 | 1 | 0.975 | 0.751 |
| COR-L 105 | 0.413 | 0.391 | 0.366 | 0.32 | 0.4 | 0.32 | 0.31 | 0.309 | 0.277 | 1.07 | 0.728 | 0.744 | 0.757 | 0.438 |
| NCI-H1650 | 1.24 | 0.795 | 0.79 | 0.498 | 0.68 | 0.397 | 0.36 | 0.343 | 0.297 | 1.13 | 0.965 | 0.998 | 0.984 | 0.841 |
| HCC-15 | 0.949 | 0.808 | 0.713 | 0.724 | 0.558 | 0.675 | 0.562 | 0.577 | 0.628 | 0.81 | 0.793 | 0.767 | 0.77 | 0.446 |
| SK-LU-1 | 0.498 | 0.705 | 0.755 | 0.834 | 0.603 | 0.173 | 0.107 | 0.173 | 0.183 | 0.699 | 0.874 | 0.778 | 0.792 | 0.885 |
| RERF-LC-KJ | 0.825 | 0.837 | 0.846 | 0.839 | 0.888 | 0.916 | 0.87 | 0.621 | 0.758 | 0.779 | 0.817 | 0.868 | 0.85 | 0.726 |
| NCI-H2087 | 0.795 | 0.799 | 0.636 | 0.865 | 0.41 | 1.11 | 0.906 | 0.793 | 1.52 | 0.926 | 1.04 | 1.03 | 0.926 | 0.362 |
| LOU-NH91 | 0.776 | 0.738 | 0.724 | 0.67 | 0.626 | 0.632 | 0.512 | 0.49 | 0.622 | 0.721 | 0.755 | 0.755 | 0.731 | 0.606 |
| 201T | 1.01 | 0.988 | 1.06 | 1.12 | 1.18 | 0.571 | 0.533 | 0.66 | 0.627 | 1.05 | 0.999 | 1.06 | 1.06 | 1.08 |
| UMC-11 | 1.05 | 0.903 | 0.95 | 0.9 | 0.968 | 0.711 | 0.473 | 0.401 | 0.578 | 0.578 | 0.572 | 0.684 | 0.542 | 0.781 |
| NCI-H1975 | 0.866 | 0.723 | 0.85 | 0.921 | 0.513 | 0.42 | 0.404 | 0.388 | 0.386 | 0.957 | 1.02 | 0.896 | 0.927 | 0.627 |
| SW 1573 | 0.997 | 0.964 | 0.283 | 0.884 | 0.874 | 0.498 | 0.625 | 0.299 | 0.656 | 0.664 | 0.587 | 0.707 | 0.598 | 0.425 |
| NCI-H1792 | 0.995 | 0.891 | 0.653 | 0.793 | 0.566 | 1.28 | 0.849 | 0.804 | 0.957 | 1.08 | 0.916 | 0.771 | 0.881 | 0.633 |
| HCC-366 | 1.1 | 0.918 | 0.968 | 0.87 | 0.717 | 0.709 | 0.758 | 0.734 | 1.07 | 0.519 | 0.627 | 0.308 | 0.427 | 0.236 |
| NCI-H1915 | 1.05 | 1 | 0.83 | 0.653 | 0.704 | 0.329 | 0.32 | 0.317 | 0.323 | 0.976 | 0.919 | 0.869 | 0.727 | 0.495 |
